Each structure is given as a SMILES string. Several values for one entry are separate records, joined by “and”; a condition that tells them apart may be missing. Identical values can stand only once.

This is an account of results in patent US20170293715A1, “SYSTEMS, METHODS AND SOFTWARE FOR RANKING POTENTIAL GEROPROTECTIVE DRUGS” (Insilico Medicine, Inc., priority 2014, published 2017).

What all share (type): cell-based
The test system of one experiment is AHR signaling pathway. The experiment is described as follows: PAS score of AHR pathway in late-passage human fibroblasts cultured with putative geroprotectors. The settings on record: 48 hours, aged human fibroblasts (aliquot C) vs aliquot A control. How it is done: (§1) PASp=ΣNIInp×ARRnp×BTIFn×lg(CNRn)
(§2) The culture of human fibroblasts was isolated from skin of a healthy adult donor and cultured for five passages in DMEM/F12 medium supplemented by 10% FBS. The tissue sample was obtained with the written consent of a donor according to EU and local ethical guidelines. An aliquot containing ˜10 million cells was frozen in liquid nitrogen (aliquot A), whereas the remaining part of the cell culture was grown for 20 additional passages in the same medium. The cells were then harvested and stored in liquid nitrogen (aliquot B). Aliquot B cells were then cultured for two additional passages and then cultured for 48 hours in the presence of four putative geroprotector drugs. The resulting cells were harvested (aliquot C). The transcriptomes of the aliquots A, B and C were investigated with the Illumina HT12 v4 gene expression microarrays (Illumina, USA). In such a way we profiled expression of the genes implicated in the functioning of the following ten signaling pathways: AHR, AKT, Circadian, DNA repair mechanisms, EGFR, ERK signaling, Estrogen pathway, FLT3, Growth hormone, Hedgehog.
(§3) Zero PAS value means identical signaling pathway activation pattern in the older (aliquots B and C) and younger (aliquot A) fibroblasts.

Experiment [1] relates to Circadian signaling pathway. The experiment is described as follows: PAS score of Circadian pathway in late-passage human fibroblasts cultured with putative geroprotectors. Conditions: 48 hours, aged human fibroblasts (aliquot C) vs aliquot A control. As for the experimental part: as §1, §2, §3
Another experiment relates to FLT3 signaling pathway. The experiment is described as follows: PAS score of FLT3 pathway in late-passage human fibroblasts cultured with putative geroprotectors. On the set-up: unit of the concentration uncertain. The settings on record: 48 hours, aged human fibroblasts (aliquot C) vs aliquot A control. How it is done: as §1, §2, §3
For experiment [2], the system named is Hedgehog signaling pathway. In words: PAS score of Hedgehog pathway in late-passage human fibroblasts cultured with putative geroprotectors. More on the design: unit of the concentration uncertain. The settings on record: 48 hours, aged human fibroblasts (aliquot C) vs aliquot A control. As for the experimental part: as §1
The culture of human fibroblasts was isolated from skin of a healthy adult donor and cultured for five passages in DMEM/F12 medium supplemented by 10% FBS. The tissue sample was obtained with the written consent of a donor according to EU and local ethical guidelines. An aliquot containing ˜10 million cells was frozen in liquid nitrogen (aliquot A), whereas the remaining part of the cell culture was grown for 20 additional passages in the same medium. The cells were then harvested and stored in liquid nitrogen (aliquot B). Aliquot B cells were then cultured for two additional passages and then cultured for 48 hours in the presence of four putative geroprotector drugs. The resulting cells were harvested (aliquot C). The transcriptomes of the aliquots A, B and C were investigated with the Illumina HT12 v4 gene expression microarrays (Illumina, USA). In such a way we profiled expression of the genes implicated in the functioning of the following ten signaling pathways: AHR, AKT, Circadian, DNA repair mechanisms, EGFR, ERK signaling, Estrogen pathway, FLT3, Growth hormone, Hedgehog. The information about pathway configuration and functional roles of the individual genes was taken from the public database provided by SABiosciences (SABiosciences, a Qiagen company. Using Student statistical criterion and a threshold p-value <0.05, we identified a list of the differential genes and calculated for them CNRn values. The set of gene expression data corresponding to the “aliquot A” group of samples was taken as the control. The data were processed with the algorithm for the calculation of PAS, and the following pathway activation data were obtained (Table 9).
Zero PAS value means identical signaling pathway activation pattern in the older (aliquots B and C) and younger (aliquot A) fibroblasts. […] The present invention proposes ranking of the geroprotector drugs according to their ability to compensate aging-related differences in signaling pathway activation reflected by the PAS values.

Another experiment deals with human skin fibroblasts. The experiment is described as follows: Reversion of PAS patterns to the younger state, ranking of geroprotectors. As for the experimental part: (§4) The culture of human fibroblasts was isolated from skin of a healthy adult donor and cultured for five passages in DMEM/F12 medium supplemented by 10% FBS. The tissue sample was obtained with the written consent of a donor according to EU and local ethical guidelines. An aliquot containing ˜10 million cells was frozen in liquid nitrogen (aliquot A), whereas the remaining part of the cell culture was grown for 20 additional passages in the same medium. The cells were then harvested and stored in liquid nitrogen (aliquot B). Aliquot B cells were then cultured for two additional passages and then cultured for 48 hours in the presence of four putative geroprotector drugs. The resulting cells were harvested (aliquot C). […] The information about pathway configuration and functional roles of the individual genes was taken from the public database provided by SABiosciences (SABiosciences, a Qiagen company. Using Student statistical criterion and a threshold p-value <0.05, we identified a list of the differential genes and calculated for them CNRn values. The set of gene expression data corresponding to the “aliquot A” group of samples was taken as the control. The data were processed with the algorithm for the calculation of PAS, and the following pathway activation data were obtained (Table 9). […]

The subject of a further experiment is DNA repair mechanisms. In words: PAS score of DNA repair pathway in late-passage human fibroblasts cultured with putative geroprotectors. Conditions: 1 mM, 48 hours, aged human fibroblasts (aliquot C) vs aliquot A control. How it is done:
as §1, §4

The test system of experiment [3] is Growth hormone (GH) signaling pathway. The experiment is described as follows: PAS score of Growth hormone pathway in late-passage human fibroblasts cultured with putative geroprotectors. The settings on record: 1 mM, 48 hours, aged human fibroblasts (aliquot C) vs aliquot A control. As for the experimental part:
as §1, §4

In the case of `O=C(O)c1nn(Cc2ccc(Cl)cc2Cl)c2ccccc12` [Lonidamine], the “PAS AHR” value in the experiment on AHR signaling pathway (5 mM) was 2 and 4. Besides, in experiment [1] (5 mM), the “PAS Circadian” value was 5 and 7. In the experiment with FLT3 signaling pathway (5 (unit uncertain)), the “PAS FLT3” value is −1. For the same compound, the “PAS Hedgehog” value in experiment [2] (5 (unit uncertain)) is 17 and 22.

For `Oc1ccc(C=Cc2cc(O)cc(O)c2)cc1` [Resveratrol], the “PAS Circadian” value in experiment [1] (1 mM) amounted to 4. In addition, in the experiment with FLT3 signaling pathway (1 (unit uncertain)), the “PAS FLT3” value was found to be 2. In addition, the “pathways whose PAS patterns were better reverted to the younger state” value with human skin fibroblasts (1 mM, of the ten pathways tested) is reported as 7/10. In addition, the “ranking as geroprotector among the four tested” value with human skin fibroblasts (combined experimental and biomathematical system) is listed as “best putative geroprotector drug”. Moreover, the “PAS Hedgehog” value in experiment [2] (1 (unit uncertain)) was 9 and 11.

For the compound `NCCCCNCCCN` [Spermidine], the “PAS AHR” value with AHR signaling pathway (1 mM) is 3 and 2. Further, the “PAS Circadian” value in experiment [1] (1 mM) is 5 and 8. Besides, the “PAS DNA repair” value with DNA repair mechanisms is recorded as −10. In addition, the “PAS Hedgehog” value in experiment [2] (1 (unit uncertain)) was 17 and 18. In addition, the “PAS GH” value in experiment [3] is recorded as −9.

As to `COC[C@H]1OC(=O)c2coc3c2[C@@]1(C)C1=C(C3=O)[C@@H]2CCC(=O)[C@@]2(C)C[C@H]1OC(C)=O` [Wortmannin], the “PAS AHR” value with AHR signaling pathway (0.5 mM) is 1 and 2. The “PAS Circadian” value in experiment [1] (0.5 mM) was 6 and 5. Moreover, in experiment [2] (0.5 (unit uncertain)), the “PAS Hedgehog” value is 12 and 10.
